Experimental data: patent US6642003B2, “Human glucose-dependent insulin-secreting cell line” (Cedars-Sinai Medical Center, priority 2001, dated 2003)

Tests used:
[1] = system: ARIP cells; assay: Flow cytometric (FACS) analysis for insulin, ARIP cells; type: cell-based, rat; details: GLP-1 10 nM, 72 hours
Description: For fluorescence-activated cells sorting (FACS) analysis, cells were cultured in the presence of GLP-1 (10 nM), or vehicle, for 72 h, then washed with cold PBS (pH 7.4; three times) and incubated overnight, on ice, in PBS with 2% paraformaldehyde. After centrifugation, the cell pellet was resuspended in 400 μl of cold 0.1% Triton diluted in FACS buffer (PBS with 2% FCS). After several centrifugation and washes, the cells were resuspended in the assay buffer with of 10 μl of fluorescent-conjugated insulin antibody (Cat N. FM205, FITC: Chromaprobe, Inc; Mountain View, Calif.), in the presence of 10 μl of blocking antibody (anti-mouse IgG; Organon Teknika-Cappel, West Chester, Pa.). Control samples were treated with PBS, without the primary antibody, and then incubated with an […] FITC-conjugated control antibody (murine IgG; Chromaprobe Inc., Mountain View, Calif.). Flow cytometric analysis was performed with a FACScan[R] cytometer, using the LYSYS II program, and by fluorescence microscopy, as is well known in the art. See, e.g., E. Elstner, M. Linker-Israeli, J. Le, T. Umiel, P. Michl, J. W. Said, L. Binderup, J. C. […]

[2] = system: PANC-1 cells; assay: Insulin release into culture medium (RIA), parental PANC-1 cells; type: cell-based, human
Description: Rat (ARIP) and human (PANC-1) ductal cell lines were respectively a gift from Dr. J. M. Egan (National Institute on Aging, Baltimore, Md.) or purchased from ATCC (American Type Culture Collection; Manassas, Va.). ARIP cells were cultured in F12 medium (Gibco-BRL, Gaithersburg; Md.) containing 100 μg/ml penicillin, 50 μg/ml streptomycin and 10% fetal calf serum (FCS; Gibco-BRL) at 37° C. under a humidified condition of 95% air and 5% CO2. PANC-1 cells were cultured in DMEM medium supplemented with antibiotics and FCS, as indicated for F12 medium. […]
PANC-1 (parental, IDX-1-transfected, and neomycin-transfected) cells and ARIP (only parental) cells were plated at density of 10^6 cells/well in a 6 well plate. […] Glucose-dependent insulin secretion was evaluated by culturing the cells in the presence of a determined concentration of GLP-1 (10 nM for 72 h) with increasing concentration of glucose in the culture medium ([…]). Insulin released into the medium was measured by RIA (Linco Research Inc.; St. Charles, Mass.). […]
Total cellular protein content was measured by utilizing the Bradford method (Bio-Rad; Richmond, Calif.). The amount of proteins measured was used as a correction factor for determining the relative amount of medium to be assayed for each individual RIA for insulin.

## glucagon-like peptide-1 [GLP-1]
[1]
  cells reacting with anti-human insulin antibody: 72.6%
[2]; parental PANC-1, 12 mM glucose, various GLP-1 concentrations
  insulin secretion in response to GLP-1: did not secrete insulin
[2]; wild-type PANC-1, GLP-1 10 nM for 72 h, data not shown
  insulin secretory response with increasing glucose: No insulin secretory response
